Data on 7 compounds can be found in ChEMBL document CHEMBL1147321, “Terpenoids from the North Adriatic Sponge Spongia officinalis” (J Nat Prod, 1989).

The structures appear in SMILES notation. ≈ marks a conversion by molar mass, not a printed value.

This data set can be described thus: Toxicity against Artemia salina by lethality assay. In kind it is organism-based. Conditions: in vivo, read-out: LD50 (the source's name).
For the compound `C/C(=C\C(=O)/C=C(\C)CCCc1ccoc1)CCCc1ccoc1`, the LC50 stood at 1.6 µg/mL (≈ 4.9 µM). For `C/C(=C/C(=O)/C=C(\C)CCCc1ccoc1)CCCc1ccoc1` the value was 0.09 µg/mL (≈ 0.276 µM).

For `C/C(=C/C(=O)/C=C(/C)CCCc1ccoc1)CCCc1ccoc1`, the LC50 amounted to 0.45 µg/mL (≈ 1.38 µM). As for `CC(=O)O[C@H]1C[C@H]2[C@]3(C)CCCC(C)(C)[C@H]3CC[C@]2(C)[C@H]2CC=C3CO[C@H](O)[C@H]3[C@]12C`, the figure is 200 µg/mL (≈ 464 µM); as for `CC(=O)O[C@H]1C[C@@H]2[C@@]3(C)CCCC(C)(C)[C@@H]3CC[C@@]2(C)[C@@H]2CCc3cocc3[C@@]12C`, 180 µg/mL (≈ 436 µM). Turning to `CC(=O)O[C@@H]1OCC2=CC[C@H]3[C@]4(C)CC[C@H]5C(C)(C)CCC[C@]5(C)[C@H]4C[C@H](OC(C)=O)[C@]3(C)[C@H]21` [DEOXOSCALARIN ACETATE], the LC50 was found to be 190 µg/mL. Take `C/C(=C\C(=O)C/C(C)=C/CCc1ccoc1)CCCc1ccoc1` [FUROSPONGIN 2]: the LC50 is 0.12 µg/mL (≈ 0.368 µM).
